Several values for one entry are separate records, joined by “and”; a condition that tells them apart may be missing. Equal values may be shown once. Inconclusive results and toxic doses are left out. How the source made its calls: active means survival T/C of 150% or more; inactive means T/C below 125% in these data.
Test system: P388 leukemia ip, CD2F1 mice, survival T/C
Assay: NCI In Vivo Anticancer Drug Screen. Data for tumor model P388 Leukemia (intraperitoneal) in CD2F1 (CDF1) mice
Conditions: endpoint: median survival time, higher = longer survival
Method in brief: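 Mice carrying the transplanted tumor received test compound or vehicle. Survival was recorded in each group, and the value is the treated-group measurement divided by that of the vehicle-treated control group.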

[1] = dose: 60.0 mg/kg/injection, schedule: Q01DX005 (ip), vehicle: saline with Tween-80
[2] = dose: 120.0 mg/kg/injection, schedule: Q01DX005 (ip), vehicle: saline with Tween-80
[3] = dose: 240.0 mg/kg/injection, schedule: Q01DX005 (ip), vehicle: saline with Tween-80
[4] = dose: 60.0 mg/kg/injection, schedule: Q01DX005 (ip), vehicle: saline
[5] = dose: 120.0 mg/kg/injection, schedule: Q01DX005 (ip), vehicle: saline
[6] = dose: 240.0 mg/kg/injection, schedule: Q01DX005 (ip), vehicle: saline
[7] = dose: 12.5 mg/kg/injection, schedule: Q01DX009 (ip), vehicle: saline with Tween-80
[8] = dose: 25.0 mg/kg/injection, schedule: Q01DX009 (ip), vehicle: saline with Tween-80
[9] = dose: 50.0 mg/kg/injection, schedule: Q01DX009 (ip), vehicle: saline with Tween-80
[10] = dose: 50.0 mg/kg/injection, schedule: Q01DX005 (ip), vehicle: saline with Tween-80
[11] = dose: 100.0 mg/kg/injection, schedule: Q01DX005 (ip), vehicle: saline with Tween-80
[12] = dose: 200.0 mg/kg/injection, schedule: Q01DX005 (ip), vehicle: saline with Tween-80
[13] = dose: 100.0 mg/kg/injection, schedule: Q01DX009 (ip), vehicle: saline with Tween-80
[14] = dose: 200.0 mg/kg/injection, schedule: Q01DX009 (ip), vehicle: saline with Tween-80
[15] = dose: 100.0 mg/kg/injection, schedule: Q01DX001 (ip), vehicle: saline with Tween-80
[16] = dose: 200.0 mg/kg/injection, schedule: Q01DX001 (ip), vehicle: saline with Tween-80
[17] = dose: 400.0 mg/kg/injection, schedule: Q01DX001 (ip), vehicle: saline with Tween-80
[18] = dose: 50.0 mg/kg/injection, schedule: Q01DX009 (ip), vehicle: saline
[19] = dose: 100.0 mg/kg/injection, schedule: Q01DX009 (ip), vehicle: saline
[20] = dose: 200.0 mg/kg/injection, schedule: Q01DX009 (ip), vehicle: saline

Measured: T/C

CC(=O)NCC(CN(C)C)(c1ccccc1)c1ccccc1
inactive: dose: 37.5 mg/kg/injection, schedule: Q01DX009 (ip), vehicle: Klucel (hydroxypropylcellulose) (HPC) 101 % of control | dose: 75.0 mg/kg/injection, schedule: Q01DX009 (ip), vehicle: Klucel (hydroxypropylcellulose) (HPC) 101 % of control | dose: 150.0 mg/kg/injection, schedule: Q01DX009 (ip), vehicle: Klucel (hydroxypropylcellulose) (HPC) 96 % of control | dose: 300.0 mg/kg/injection, schedule: Q01DX009 (ip), vehicle: Klucel (hydroxypropylcellulose) (HPC) 95 % of control

CC(Cl)CN(Cc1cc(O)c(CN(CC(C)Cl)CC(C)Cl)cc1O)CC(C)Cl (configuration not stated)
inactive: dose: 200.0 mg/kg/injection, schedule: Q04DX003 (ip), vehicle: Klucel (hydroxypropylcellulose) (HPC) 118 % of control

CCOc1ccc(N2C(=O)C(=O)C(C#N)(c3nc4ccccc4o3)C(=O)C2=O)cc1
inactive: [1] 98 % of control | [2] 104 % of control | [3] 105 % of control

CC1C(O)=C(c2ccccc2)P(=O)(Cc2ccccc2)C1C (configuration not stated)
inactive: [4] 101 % of control | [5] 100 % of control | [6] 93 % of control

Nc1cccc2[nH]c(=O)c3ccccc3c12
inactive: [1] 93 % of control | [2] 105 % of control | [3] 106 % of control

CC1(C)OC[C@@H](N)[C@@H](O)CO1
inactive: [4] 104 % of control | [5] 104 % of control | [6] 118 % of control

CCOCC(COCC)(COCC)COCC
inactive: [7] 110 % of control | [8] 110 % of control | [9] 119 % of control

CC(=O)c1c(-c2ccc(F)cc2)c(-c2ccc(F)cc2)n[nH]c1=O
inactive: [10] 100 % of control | [11] 100 % of control | [12] 97 % of control

S=c1nc[nH]c2cc3cn[nH]c3cc12
inactive: [10] 94 % of control | [11] 96 % of control | [12] 92 % of control

Cc1cc2[nH]c3ccccc3n2c(=O)c1N=Nc1ccccc1
inactive: dose: 87.5 mg/kg/injection, schedule: Q04DX002 (ip), vehicle: Klucel (hydroxypropylcellulose) (HPC) 101 % of control | dose: 175.0 mg/kg/injection, schedule: Q04DX002 (ip), vehicle: Klucel (hydroxypropylcellulose) (HPC) 92 % of control | dose: 350.0 mg/kg/injection, schedule: Q04DX002 (ip), vehicle: Klucel (hydroxypropylcellulose) (HPC) 99 % of control

Cc1nc2sccn2c1C#N
inactive: dose: 12.5 mg/kg/injection, schedule: Q01DX001 (ip), vehicle: Klucel (hydroxypropylcellulose) (HPC) 117 % of control | dose: 25.0 mg/kg/injection, schedule: Q01DX001 (ip), vehicle: Klucel (hydroxypropylcellulose) (HPC) 102 % of control | dose: 50.0 mg/kg/injection, schedule: Q01DX001 (ip), vehicle: Klucel (hydroxypropylcellulose) (HPC) 102 % of control

OC(Nc1ncccn1)C(Cl)(Cl)Cl (configuration not stated)
inactive: [9] 104 % of control | [13] 100 % of control | [14] 100 % of control

CN(C)[C@@H]1C(=O)C(C(N)=O)=C(O)[C@@]2(O)C(=O)C3=C(O)c4c(O)cccc4C[C@H]3C[C@@H]12
inactive: dose: 7.5 mg/kg/injection, schedule: Q01DX010 (ip), vehicle: saline 115 % of control | dose: 15.0 mg/kg/injection, schedule: Q01DX010 (ip), vehicle: saline 120 % of control

CC(C(=O)S)C(O)(c1ccccc1)c1ccccc1 (configuration not stated)
inactive: dose: 25.0 mg/kg/injection, schedule: Q04DX003 (ip), vehicle: Klucel (hydroxypropylcellulose) (HPC) 98 % of control | dose: 50.0 mg/kg/injection, schedule: Q04DX003 (ip), vehicle: Klucel (hydroxypropylcellulose) (HPC) 101 % of control | dose: 100.0 mg/kg/injection, schedule: Q04DX003 (ip), vehicle: Klucel (hydroxypropylcellulose) (HPC) 107 % of control and 93 % of control

COC(=O)/C=C/CNC(C)C
inactive: dose: 25.0 mg/kg/injection, schedule: Q01DX009 (ip), vehicle: water 101 % of control | dose: 50.0 mg/kg/injection, schedule: Q01DX009 (ip), vehicle: water 99 % of control | dose: 100.0 mg/kg/injection, schedule: Q01DX009 (ip), vehicle: water 108 % of control | dose: 200.0 mg/kg/injection, schedule: Q01DX009 (ip), vehicle: water 115 % of control | dose: 400.0 mg/kg/injection, schedule: Q01DX009 (ip), vehicle: water 97 % of control

Cc1cc2nc(C(C)(C)F)c(=O)[nH]c2cc1C
inactive: [15] 102 % of control | [16] 94 % of control | [17] 96 % of control

N#CC(C#N)=C1Sc2nc3ccc([N+](=O)[O-])cc3nc2S1
inactive: [18] 109 % of control | [19] 90 % of control | [20] 118 % of control

C1C2OC2C2C1C1CC2C2OC12 (configuration not stated)
inactive: dose: 6.25 mg/kg/injection, schedule: Q01DX009 (ip), vehicle: Klucel (hydroxypropylcellulose) (HPC) 105 % of control | dose: 12.5 mg/kg/injection, schedule: Q01DX009 (ip), vehicle: Klucel (hydroxypropylcellulose) (HPC) 96 % of control | dose: 25.0 mg/kg/injection, schedule: Q01DX009 (ip), vehicle: Klucel (hydroxypropylcellulose) (HPC) 99 % of control

COc1ccccc1N=C(NC#N)C(c1ccccc1)c1ccccc1
inactive: [15] 99 % of control | [16] 97 % of control | [17] 93 % of control

COc1ccc(C2CC(=O)NC(N)=N2)c(O)c1 (configuration not stated)
inactive: [18] 103 % of control | [19] 104 % of control | [20] 103 % of control

CC(C)NC(=S)NCc1ccc(Cl)c(Cl)c1
inactive: dose: 50.0 mg/kg/injection, schedule: Q01DX009 (ip), vehicle: other 88 % of control | dose: 100.0 mg/kg/injection, schedule: Q01DX009 (ip), vehicle: other 96 % of control

CCOC(=O)C(C)NC(=O)OCc1ccccc1 (configuration not stated)
inactive: [1] 101 % of control | [2] 112 % of control | [3] 116 % of control

O=C(OC12CCCCC1C1(CCCCC1)N=N2)c1ccccc1 (configuration not stated)
inactive: [7] 105 % of control | [8] 99 % of control | [9] 111 % of control | [13] 99 % of control | [14] 97 % of control

CC1CN(C(=O)Nc2c(C(C)C)cccc2C(C)C)CC(C)O1 (configuration not stated)
inactive: [9] 96 % of control | [13] 90 % of control

O=c1[nH]n(CCc2ccccn2)c(=O)c(Cl)c1Cl
inactive: [10] 96 % of control | [11] 100 % of control | [12] 92 % of control

CCOC(=O)Nc1cc2c(c(N)n1)N=C(c1ccc(C(F)(F)F)cc1)CN2
inactive: dose: 2.5 mg/kg/injection, schedule: Q01DX009 (ip), vehicle: saline with Tween-80 109 % of control | dose: 5.0 mg/kg/injection, schedule: Q01DX009 (ip), vehicle: saline with Tween-80 111 % of control | dose: 7.5 mg/kg/injection, schedule: Q04DX003 (ip), vehicle: saline with Tween-80 101 % of control | dose: 10.0 mg/kg/injection, schedule: Q01DX009 (ip), vehicle: saline with Tween-80 111 % of control | [7] 86 % of control | dose: 15.0 mg/kg/injection, schedule: Q04DX003 (ip), vehicle: saline with Tween-80 104 % of control | dose: 22.5 mg/kg/injection, schedule: Q01DX001 (ip), vehicle: saline with Tween-80 101 % of control | [8] 111 % of control | dose: 30.0 mg/kg/injection, schedule: Q04DX003 (ip), vehicle: saline with Tween-80 101 % of control | dose: 45.0 mg/kg/injection, schedule: Q01DX001 (ip), vehicle: saline with Tween-80 94 % of control | [9] 117 % of control | dose: 90.0 mg/kg/injection, schedule: Q01DX001 (ip), vehicle: saline with Tween-80 101 % of control

COc1cccc2c1C(=O)c1c(O)c3c(c(O)c1C2=O)C[C@@](O)(c1csc(-c2ccncc2)n1)C[C@@H]3OC1CC(N)C(O)C(C)O1 (some centres not stated)
inactive: dose: 6.25 mg/kg/injection, schedule: Q04DX003 (ip), vehicle: water 118 % of control | dose: 12.5 mg/kg/injection, schedule: Q04DX003 (ip), vehicle: water 122 % of control | dose: 25.0 mg/kg/injection, schedule: Q04DX003 (ip), vehicle: water 100 % of control | dose: 50.0 mg/kg/injection, schedule: Q04DX003 (ip), vehicle: water 118 % of control | dose: 200.0 mg/kg/injection, schedule: Q04DX003 (ip), vehicle: water 92 % of control

Reference: PubChem BioAssay AID330 (DTP/NCI, 2004)
